In brackets after ≈: the same amount, converted by molar mass. Like-named read-outs stand apart in the source and are kept apart here.
What was measured:
E. faecalis (29212) = experiment: microbe, parasite or virus in culture; settings: Enterococcus faecalis, read-out: MIC50 E. faecalis
[1] = tested on: ampicillin- and streptomycin-resistant E. coli (D31); experiment: microbe, parasite or virus in culture; settings: Escherichia coli, read-out: MIC50 E. coli
fresh sheep erythrocytes = experiment: hemolytic assay; format: cell-based; settings: sheep, 30 min, pH 7.2
Protocol: Hemolytic activity of model peptides was assessed on fresh sheep erythrocytes (Fitzgerald Inc., Concord, Mass.). […] The resulting supernatant was diluted by a factor of 40 in distilled water. The absorbances of the supernatant at λ=540 nm (OD540) were measured in the UV Spectrophotometer. […] Hemolytic index (HI) was defined as HI═HD50/IC50.

B. Subtilis (ATCC 6633) = experiment: microbe, parasite or virus in culture; settings: Bacillus subtilis, ATCC6633, read-out: MIC50 B. subtilis
[2] = tested on: ampicillin- and streptomycin-resistant E. coli (D31)
[3] = tested on: multi-drug resistant strain S. aureus
[4] = tested on: multi-drug resistant strain S. aureus; experiment: microbe, parasite or virus in culture; settings: Staphylococcus aureus, read-out: MIC50 S. aureus
[5] = tested on: B. anthracis (32F2 Sterne); experiment: microbe, parasite or virus in culture; settings: Bacillus anthracis, read-out: MIC50 B. anthracis

Question: CC(C)(O/N=C(\C(=O)N[C@@H]1C(=O)N2C(C(=O)[O-])=C(C[n+]3ccccc3)CS[C@H]12)c1csc(N)n1)C(=O)O [Ceftazidime] was tested. Which MIC50 (E. faecalis (29212)) did it give?
Answer: The MIC50 was 14 µg/mL (≈ 25.6 µM).

Question: What about the MIC50 [1] of the same molecule?
Answer: Its MIC50 is 44 µg/mL (≈ 80.5 µM).

Question: What about the “HD50 (peptide concentration corresponding to 50% hemolysis)” value (fresh sheep erythrocytes) of the same molecule?
Answer: The value was >2000 µg/mL.

Question: What about the MIC50 (B. Subtilis (ATCC 6633)) of the same molecule?
Answer: Its MIC50 is 6.2 µg/mL (≈ 11.3 µM).

Question: What about the “MIC50 E. coli” value ([2]; 75 mM NaCl) of the same molecule?
Answer: The value was 44 µg/mL (≈ 80.5 µM).

Question: What about the “MIC50 E. coli” value ([2]; 150 mM NaCl) of the same molecule?
Answer: The value was 44 µg/mL (≈ 80.5 µM).

Question: What about the “MIC50 S. aureus” value ([3]; 75 mM NaCl) of the same molecule?
Answer: Its value is 63 µg/mL (≈ 115 µM).

Question: What about the “MIC50 S. aureus” value ([3]; 150 mM NaCl) of the same molecule?
Answer: The value was 63 µg/mL (≈ 115 µM).

Question: What about the MIC50 [4] of the same molecule?
Answer: Its MIC50 is 63 µg/mL (≈ 115 µM).

Question: What about the MIC50 [5] of the same molecule?
Answer: Its MIC50 is 91 µg/mL (≈ 166 µM).

From patent US7902327B2, “Dendrimeric peptides, pharmaceutical compositions and methods of using the same” (New York University School of Medicine, priority 2007, dated 2011)
